Key:
[1] = target: T1, Muscarinic acetylcholine receptor M5 (Homo sapiens) (UniProt P08912); experiment: Displacement of [3H]-NMS from human recombinant M5 receptor expressed in CHO cells assessed as dissociation half life at 100 fold human M5 receptor binding Ki concentration after 24 hrs by dilution-offset filter binding assay; type: cell-based
T1 sequence (whole entry): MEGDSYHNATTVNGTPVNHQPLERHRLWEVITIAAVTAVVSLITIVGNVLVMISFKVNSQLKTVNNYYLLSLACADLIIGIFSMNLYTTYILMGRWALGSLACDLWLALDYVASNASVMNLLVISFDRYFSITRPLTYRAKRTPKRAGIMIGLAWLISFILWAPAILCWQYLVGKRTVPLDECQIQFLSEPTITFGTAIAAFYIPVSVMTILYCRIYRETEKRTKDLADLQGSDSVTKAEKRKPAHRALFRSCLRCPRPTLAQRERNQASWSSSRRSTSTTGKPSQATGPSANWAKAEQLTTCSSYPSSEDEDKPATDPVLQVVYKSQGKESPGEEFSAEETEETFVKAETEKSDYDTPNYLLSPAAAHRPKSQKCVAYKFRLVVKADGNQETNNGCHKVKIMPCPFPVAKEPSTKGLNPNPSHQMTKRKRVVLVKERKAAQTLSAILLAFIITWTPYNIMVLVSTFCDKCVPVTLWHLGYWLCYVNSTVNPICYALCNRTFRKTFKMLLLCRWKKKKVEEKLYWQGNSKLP

Rattus norvegicus = experiment: Unbound clearance in iv dosed rat; type: ADME, organism-based; conditions: in vivo
[2] = target: T2, Muscarinic acetylcholine receptor M3 (Homo sapiens, UniProt P20309); experiment: Displacement of [3H]-NMS from human recombinant M3 receptor expressed in CHO cells after 24 hrs by filter binding assay; type: cell-based
Target sequence in this assay (P20309 whole entry): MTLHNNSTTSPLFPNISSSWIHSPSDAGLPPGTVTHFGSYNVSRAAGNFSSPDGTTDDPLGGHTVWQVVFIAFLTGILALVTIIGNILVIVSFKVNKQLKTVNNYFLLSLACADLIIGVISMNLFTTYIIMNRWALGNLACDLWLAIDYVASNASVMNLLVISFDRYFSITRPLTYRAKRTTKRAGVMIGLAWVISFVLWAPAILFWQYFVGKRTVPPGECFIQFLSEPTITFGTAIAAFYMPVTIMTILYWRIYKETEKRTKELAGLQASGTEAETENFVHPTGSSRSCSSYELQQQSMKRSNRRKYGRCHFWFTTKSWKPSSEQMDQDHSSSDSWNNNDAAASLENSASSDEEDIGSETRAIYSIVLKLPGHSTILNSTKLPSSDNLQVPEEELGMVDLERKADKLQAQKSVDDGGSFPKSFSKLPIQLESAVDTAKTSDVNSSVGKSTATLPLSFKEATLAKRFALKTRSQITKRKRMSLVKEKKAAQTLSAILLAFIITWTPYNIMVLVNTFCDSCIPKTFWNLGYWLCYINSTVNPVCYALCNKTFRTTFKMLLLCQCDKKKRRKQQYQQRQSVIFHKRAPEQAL

Canis familiaris [3] = experiment: Bronchodilator activity in Beagle dog assessed as inhibition of methacholine-induced lung resistance after cumulative intratracheal administration in micelle solution at hourly intervals challenged each time 1 hr later with methacholine; type: functional, Canis lupus familiaris
Oryctolagus cuniculus = experiment: Toxicity in rabbit lung cough model assessed as induction of cough production at 2000 ug administered intratracheally; type: organism-based; conditions: in vivo, inhaled_or_intranasal
Canis familiaris [4] = experiment: Toxicity in methacholine challenged Beagle dog assessed effect on heart rate at 10 ug intratracheally administered as single dose in micelle solution; type: organism-based, Canis lupus familiaris; conditions: in vivo, inhaled_or_intranasal
[5] = target: T2, Muscarinic acetylcholine receptor M3
Target sequence in this assay (P20309 whole entry, looked up): as the sequence (P20309 whole entry) above
Description: Displacement of radioligand from M3 receptor assessed as dissociation half life

[6] = target: Muscarinic acetylcholine receptor M3 (Cavia porcellus, UniProt Q8VH26); experiment: Antagonist activity at M3 receptor in Dunkin-Hartley guinea pig tracheal strips assessed as inhibition of electrically field-stimulated contractile response after 8 hrs; type: functional
[7] = Total clearance in iv dosed rat; type: ADME, organism-based; conditions: in vivo
Cavia porcellus = experiment: Bronchodilator activity in Dunkin-Hartley guinea pig assessed as inhibition of […] lung resistance after cumulative intratracheal administration in micelle solution at hourly intervals challenged each time 1 hr later with methacholine; type: functional, organism-based
MDR1 [8] = experiment: Apparent permeability across basal to apical side in dog MDCK expressing MDR1; type: ADME, cell-based, Canis lupus familiaris
Canis familiaris [9] = experiment: Bronchodilator activity in methacholine challenged Beagle dog assessed as intrinsic duration of action at 10 ug intratracheally administered as single dose in micelle solution; type: functional, Canis lupus familiaris
[10] = Intrinsic clearance in human liver microsomes assessed per mg of protein by glucuronidation assay in presence of Brijj-58 and UDPGA
MDR1 [11] = experiment: Apparent permeability across apical to basal side in dog MDCK expressing MDR1; type: ADME, cell-based, Canis lupus familiaris
Canis familiaris [12] = experiment: Toxicity in methacholine challenged Beagle dog assessed effect on heart rate at 3 ug intratracheally administered as single dose in micelle solution; type: organism-based, Canis lupus familiaris; conditions: in vivo, inhaled_or_intranasal
[13] = Intrinsic clearance in human hepatocytes assessed per million cells

Muscarinic acetylcholine receptor M3 (Cavia porcellus, UniProt Q8VH26), sequence (Q8VH26 whole entry): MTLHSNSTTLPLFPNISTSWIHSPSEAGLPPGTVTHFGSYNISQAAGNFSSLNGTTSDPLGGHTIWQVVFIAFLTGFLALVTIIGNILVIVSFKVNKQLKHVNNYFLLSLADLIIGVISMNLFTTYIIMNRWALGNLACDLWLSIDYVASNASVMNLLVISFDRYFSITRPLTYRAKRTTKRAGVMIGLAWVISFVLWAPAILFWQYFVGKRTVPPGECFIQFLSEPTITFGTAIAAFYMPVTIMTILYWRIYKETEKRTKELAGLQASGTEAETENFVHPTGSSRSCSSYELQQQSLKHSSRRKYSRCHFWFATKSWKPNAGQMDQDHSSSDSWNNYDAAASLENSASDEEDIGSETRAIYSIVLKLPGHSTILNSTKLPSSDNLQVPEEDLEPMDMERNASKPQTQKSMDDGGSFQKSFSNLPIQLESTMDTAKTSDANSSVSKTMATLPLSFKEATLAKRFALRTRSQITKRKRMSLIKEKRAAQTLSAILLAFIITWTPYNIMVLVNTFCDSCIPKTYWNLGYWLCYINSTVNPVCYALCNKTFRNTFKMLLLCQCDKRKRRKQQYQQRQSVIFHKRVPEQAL

## CC(C)(CCC(C(N)=O)(c1ccccc1)c1ccccc1)N1CC(Oc2cccc(O)c2)C1 [PF-03635659]
[1]
  T1/2: > 16.7 h
Rattus norvegicus
  CL free: 2065 mL/min/kg
[2]
  Ki: 0.128 nM
Canis familiaris [3]
  ID50: 3 µg
Oryctolagus cuniculus
  Activity: Toxic
Canis familiaris [4]
  Activity: Non-toxic
[5]
  T1/2: 83.3 h
[6]
  IC50: 1.53 nM
[7]
  clearance: 134 mL/min/kg
Cavia porcellus
  ED50: 3 µg
MDR1 [8]
  Papp B→A: 64 ×10⁻⁶ cm/s
Canis familiaris [9]
  Time: 32 h
[10]
  microsomal CLint: 221 µL/min/mg
MDR1 [11]
  Papp A→B: 7 ×10⁻⁶ cm/s
Canis familiaris [12]
  Activity: Non-toxic
[13]
  hepatocyte CLint: 96 µL/min/1e6 cells

From ChEMBL document CHEMBL1909511, “Inhalation by design: novel tertiary amine muscarinic M₃ receptor antagonists with slow off-rate binding kinetics for inhaled once-daily treatment of chronic obstructive pulmonary disease” (J Med Chem, 2011)
